# Patent US11098038B2, “Imidazole-based anticancer agents and derivatives thereof, and methods of making and using same” (The University of Toledo, priority 2017, dated 2021)
# What was measured:
# A549/ATCC = assay: NCI 60 screen, A549/ATCC; assay type: cell-based; details: Homo sapiens, Non-Small Cell Lung
# Experimental: (§1) The compounds synthesized were tested at the National Cancer Institute (NCI) for anti-proliferative activity in the 60 human tumor cell line assay.
# SK-OV-3 = assay: NCI 60 screen, SK-OV-3; assay type: cell-based; details: Homo sapiens, Ovarian
# Experimental: as §1
# TK-10 = assay: NCI 60 screen, TK-10; assay type: cell-based; details: Homo sapiens, Renal
# Experimental: as §1
# HT29 = assay: NCI 60 screen, HT29; assay type: cell-based; details: Homo sapiens, HT-29, Colon
# Experimental: as §1
# U251 = assay: NCI 60 screen, U251; assay type: cell-based; details: Homo sapiens, U-251, CNS
# Experimental: as §1
# DU-145 = assay: NCI 60 screen, DU-145; assay type: cell-based; details: Homo sapiens, Prostatic
# Experimental: as §1
# EKVX = assay: NCI 60 screen, EKVX; assay type: cell-based; details: Homo sapiens, Non-Small Cell Lung
# Experimental: as §1
# A498 = assay: NCI 60 screen, A498; assay type: cell-based; details: Homo sapiens, Renal
# Experimental: as §1
# MDA-MB-468 = assay: NCI 60 screen, MDA-MB-468; assay type: cell-based; details: Homo sapiens, Breast
# Experimental: as §1
# SK-MEL-2 [1] = assay: NCI 60 screen, SK-MEL-2 (second line); assay type: cell-based; details: Homo sapiens; Melanoma, SK-MEL-2 (second of two lines so named, r38)
# Experimental: as §1
# NCI-322M = assay: NCI 60 screen, NCI-322M; assay type: cell-based; details: Homo sapiens, Non-Small Cell Lung
# Experimental: as §1
# LOX IMVI = assay: NCI 60 screen, LOX IMVI; assay type: cell-based; details: Homo sapiens, Melanoma
# Experimental: as §1
# SN12C = assay: NCI 60 screen, SN12C; assay type: cell-based; details: Homo sapiens, Renal
# Experimental: as §1
# NCI-H226 = assay: NCI 60 screen, NCI-H226; assay type: cell-based; details: Homo sapiens, Non-Small Cell Lung
# Experimental: as §1
# MDA-MB-435 = assay: NCI 60 screen, MDA-MB-435; assay type: cell-based; details: Homo sapiens, Melanoma
# Experimental: as §1
# HS 578T = assay: NCI 60 screen, HS 578T; assay type: cell-based; details: Homo sapiens, Breast
# Experimental: as §1
# MDA-MB-231/ATCC = assay: NCI 60 screen, MDA-MB-231/ATCC; assay type: cell-based; details: Homo sapiens, Breast
# Experimental: as §1
# HL-60(TB) = assay: NCI 60 screen, HL-60(TB); assay type: cell-based; details: Homo sapiens, Leukemia
# Experimental: as §1
# PC-3 = assay: NCI 60 screen, PC-3; assay type: cell-based; details: Homo sapiens, Prostatic
# Experimental: as §1
# RXF393 = assay: NCI 60 screen, RXF393; assay type: cell-based; details: Homo sapiens, RXF 393, Renal
# Experimental: as §1
# CCRF-CEM = assay: NCI 60 screen, CCRF-CEM; assay type: cell-based; details: Homo sapiens, Leukemia
# Experimental: as §1
# UO-31 = assay: NCI 60 screen, UO-31; assay type: cell-based; details: Homo sapiens, Renal
# Experimental: as §1
# NCI-460 = assay: NCI 60 screen, NCI-460; assay type: cell-based; details: Homo sapiens, Non-Small Cell Lung
# Experimental: as §1
# NCI/ADR-RES = assay: NCI 60 screen, NCI/ADR-RES; assay type: cell-based; details: Homo sapiens, Ovarian
# Experimental: as §1
# UACC-62 = assay: NCI 60 screen, UACC-62; assay type: cell-based; details: Homo sapiens, Melanoma
# Experimental: as §1
# HOP-92 = assay: NCI 60 screen, HOP-92; assay type: cell-based; details: Homo sapiens, Non-Small Cell Lung
# Experimental: as §1
# MALME-3M = assay: NCI 60 screen, MALME-3M; assay type: cell-based; details: Homo sapiens, Melanoma
# Experimental: as §1
# IGROV1 = assay: NCI 60 screen, IGROV1; assay type: cell-based; details: Homo sapiens, IGROV-1, Ovarian
# Experimental: as §1
# SNB-75 = assay: NCI 60 screen, SNB-75; assay type: cell-based; details: Homo sapiens, CNS
# Experimental: as §1
# COLO 205 = assay: NCI 60 screen, COLO 205; assay type: cell-based; details: Homo sapiens, Colon
# Experimental: as §1
# BT-549 = assay: NCI 60 screen, BT-549; assay type: cell-based; details: Homo sapiens, Breast
# Experimental: as §1
# KM12 = assay: NCI 60 screen, KM12; assay type: cell-based; details: Homo sapiens, Colon
# Experimental: as §1
# MOLT-4 = assay: NCI 60 screen, MOLT-4; assay type: cell-based; details: Homo sapiens, Leukemia
# Experimental: as §1
# HCT-116 = assay: NCI 60 screen, HCT-116; assay type: cell-based; details: Homo sapiens, Colon
# Experimental: as §1
# OVCAR-3 = assay: NCI 60 screen, OVCAR-3; assay type: cell-based; details: Homo sapiens, Ovarian
# Experimental: as §1
# 786-0 = assay: NCI 60 screen, 786-0; assay type: cell-based; details: Homo sapiens, Renal
# Experimental: as §1
# SF-295 = assay: NCI 60 screen, SF-295; assay type: cell-based; details: Homo sapiens, CNS
# Experimental: as §1
# UACC-257 = assay: NCI 60 screen, UACC-257; assay type: cell-based; details: Homo sapiens, Melanoma
# Experimental: as §1
# SW-620 = assay: NCI 60 screen, SW-620; assay type: cell-based; details: Homo sapiens, Colon
# Experimental: as §1
# ACHN = assay: NCI 60 screen, ACHN; assay type: cell-based; details: Homo sapiens, Renal
# Experimental: as §1
# HCT15 = assay: NCI 60 screen, HCT15; assay type: cell-based; details: Homo sapiens, HCT-15, Colon
# Experimental: as §1
# OVCAR-5 = assay: NCI 60 screen, OVCAR-5; assay type: cell-based; details: Homo sapiens, Ovarian
# Experimental: as §1
# HCC-2998 = assay: NCI 60 screen, HCC-2998; assay type: cell-based; details: Homo sapiens, Colon
# Experimental: as §1
# MCF7 = assay: NCI 60 screen, MCF7; assay type: cell-based; details: Homo sapiens, Breast
# Experimental: as §1
# OVCAR-8 = assay: NCI 60 screen, OVCAR-8; assay type: cell-based; details: Homo sapiens, Ovarian
# Experimental: as §1
# HOP-62 = assay: NCI 60 screen, HOP-62; assay type: cell-based; details: Homo sapiens, Non-Small Cell Lung
# Experimental: as §1
# SF-268 = assay: NCI 60 screen, SF-268; assay type: cell-based; details: Homo sapiens, CNS
# Experimental: as §1
# SF-539 = assay: NCI 60 screen, SF-539; assay type: cell-based; details: Homo sapiens, CNS
# Experimental: as §1
# NCI-H23 = assay: NCI 60 screen, NCI-H23; assay type: cell-based; details: Homo sapiens, Non-Small Cell Lung
# Experimental: as §1
# NCI-H522 = assay: NCI 60 screen, NCI-H522; assay type: cell-based; details: Homo sapiens, Non-Small Cell Lung
# Experimental: as §1
# SK-MEL-5 = assay: NCI 60 screen, SK-MEL-5; assay type: cell-based; details: Homo sapiens, Melanoma
# Experimental: as §1
# OVCAR-4 = assay: NCI 60 screen, OVCAR-4; assay type: cell-based; details: Homo sapiens, Ovarian
# Experimental: as §1
# SNB-19 = assay: NCI 60 screen, SNB-19; assay type: cell-based; details: Homo sapiens, CNS
# Experimental: as §1
# RPMI-8226 = assay: NCI 60 screen, RPMI-8226; assay type: cell-based; details: Homo sapiens, Leukemia
# Experimental: as §1
# T-47D = assay: NCI 60 screen, T-47D; assay type: cell-based; details: Homo sapiens, T47D, Breast
# Experimental: as §1
# SK-MEL-2 [2] = assay: NCI 60 screen, SK-MEL-2 (first line); assay type: cell-based; details: Homo sapiens; Melanoma, SK-MEL-2 (first of two lines so named, r37)
# Experimental: as §1
# CAKI-1 = assay: NCI 60 screen, CAKI-1; assay type: cell-based; details: Homo sapiens, Renal
# Experimental: as §1
smiles,measurement,setting,value
"O=C(Cc1ccc(/C=C/C(=O)c2ncc[nH]2)cc1)NC1CCCCC1 [Compound 23, (E)-2-(4-(3-(1H-imidazol-2-yl)-3-oxoprop-1-en-1-yl)phenyl)-N-cyclohexylacetamide]",melting point,,208.5 °C
"O=C(Cc1ccc(/C=C/C(=O)c2ncc[nH]2)cc1)Nc1c(F)c(F)c(F)c(F)c1F [Compound 35, (E)-2-(4-(3-(1H-imidazol-2-yl)-3-oxoprop-1-en-1-yl)phenyl)-N-(perfluorophenyl)acetamide]",melting point,,235 °C
"Cn1ccnc1C(=O)/C=C/c1ccc(CC(=O)Nc2ccc(Cl)cc2)cc1 [Compound 30, (E)-N-(4-chlorophenyl)-2-(4-(3-(1-methyl-1H-imidazol-2-yl)-3-oxoprop-1-en-1-yl)phenyl)acetamide]",GI50,A549/ATCC,1150 nM
same,GI50,SK-OV-3,8790 nM
same,GI50,TK-10,12300 nM
same,GI50,HT29,889 nM
same,GI50,U251,1100 nM
same,GI50,DU-145,1420 nM
same,melting point,,250 °C
same,GI50,EKVX,1560 nM
same,GI50,A498,25000 nM
same,GI50,MDA-MB-468,1030 nM
same,GI50,SK-MEL-2 [1],25000 nM
same,GI50,NCI-322M,3990 nM
same,GI50,LOX IMVI,1070 nM
same,GI50,SN12C,3040 nM
same,GI50,NCI-H226,7420 nM
same,GI50,MDA-MB-435,9150 nM
same,GI50,HS 578T,15700 nM
same,GI50,MDA-MB-231/ATCC,5230 nM
same,GI50,HL-60(TB),4810 nM
same,GI50,PC-3,1370 nM
same,GI50,RXF393,2970 nM
same,GI50,CCRF-CEM,1460 nM
same,GI50,UO-31,2270 nM
same,GI50,NCI-460,1580 nM
same,GI50,NCI/ADR-RES,2220 nM
same,GI50,UACC-62,6500 nM
same,GI50,HOP-92,2500 nM
same,GI50,MALME-3M,14200 nM
same,GI50,IGROV1,5270 nM
same,GI50,SNB-75,1900 nM
same,GI50,COLO 205,9440 nM
same,GI50,BT-549,3530 nM
same,GI50,KM12,1510 nM
same,GI50,MOLT-4,1740 nM
same,GI50,HCT-116,1310 nM
same,GI50,OVCAR-3,1030 nM
same,GI50,786-0,1600 nM
same,GI50,SF-295,7390 nM
same,GI50,UACC-257,25000 nM
same,GI50,SW-620,1250 nM
same,GI50,ACHN,15000 nM
same,GI50,HCT15,999 nM
same,GI50,OVCAR-5,9980 nM
same,GI50,HCC-2998,3420 nM
same,GI50,MCF7,891 nM
same,GI50,OVCAR-8,3490 nM
same,GI50,HOP-62,2160 nM
same,GI50,SF-268,1240 nM
same,GI50,SF-539,6400 nM
same,GI50,NCI-H23,2040 nM
same,GI50,NCI-H522,4850 nM
same,GI50,SK-MEL-5,14400 nM
same,GI50,OVCAR-4,2180 nM
same,GI50,SNB-19,1770 nM
same,GI50,RPMI-8226,959 nM
same,GI50,T-47D,4300 nM
same,GI50,SK-MEL-2 [2],25000 nM
same,GI50,CAKI-1,13500 nM
